Here are results for 81 molecules from the METLIN SMRT retention time set (Domingo-Almenara et al. 2019).

Molecules are shown by their SMILES.

This series can be described thus: gradient 5% acetonitrile 3 min, to 50% in 2 min, to 85% in 15 min, held 3 min, 100 µL/min. The note with it: column: Zorbax Extend-C18 2.1 x 50 mm; eluents: water / acetonitrile, 0.1% formic acid. The essentials:
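Values are retention times taken from adduct peaks that software picked and an analyst inspected. The pure standards were run as mixtures of ~100 molecules on HPLC linked to a quadrupole time-of-flight mass spectrometer, in positive and negative ionization mode. A Zorbax Extend-C18 column (2.1 × 50 mm, 1.8 μm) was used at 100 μL/min with water and acetonitrile, each including 0.1% formic acid.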
`O=C(CCC1CCN(S(=O)(=O)c2ccccc2)CC1)NC1CCCCCC1`: the RP-LC retention time came to 958 s.

Molecule `CCOc1cccc(C2CC(c3ccc4c(c3)OCO4)=NC3(CCN(C(C)C)CC3)N2)c1O` (stereo unspecified) showed an RP-LC retention time of 600 s.

Take `COC(=O)c1cnn(C(=O)c2ccc(OC)cc2)c1N`: the RP-LC retention time worked out at 829 s.

Regarding `O=S(=O)(c1cccc(C(F)(F)F)c1)N1CCc2nc(-c3ccc(F)cc3)ncc2C1`, the RP-LC retention time worked out at 1170 s.

Consider `Cc1cc(N2CCN(C)CC2)nc2ccc(NC(=S)N(C)Cc3ccccc3)cc12`, for which the RP-LC retention time came to 592 s.

Turning to `Cc1ccc(-c2noc(-c3ccc(=O)n(CCC(C)C)n3)n2)cc1`, the RP-LC retention time is 1280 s.

`CN(C)C(=O)c1ccc2c(c1)n(Cc1cccc(F)c1)c(=O)c1ccnn12` had an RP-LC retention time of 801 s.

For `CCCN1CCN(c2ncc3c(n2)CCN(Cc2ccc(CC)cc2)C3)CC1`, the RP-LC retention time was determined as 496 s.

`Cc1cnc(-c2cccnc2)n1CC1CNC1` returned an RP-LC retention time of 508 s.

As to `CCc1ccc(-n2ncc3c(=O)n(Cc4nc(-c5ccc(F)cc5)no4)cnc32)cc1`, the RP-LC retention time is 1170 s.

`CC(C)c1cc(=O)n(CC(=O)Nc2cccc3nsnc23)cn1`: the RP-LC retention time was 664 s.

`CCOC(=O)c1nc(N(Cc2cccs2)C2CCCC2)c2ccccc2n1` displayed an RP-LC retention time of 1120 s.

Molecule `CC(=O)c1ccc(Nc2ncnc3c2cnn3-c2ccccc2Cl)cc1` registered an RP-LC retention time of 804 s.

On to `CCc1cccc(C)c1Nc1c(-c2ccc(SC)cc2)nc2ncccn12`, for which the RP-LC retention time came out at 916 s.

Take `Cn1c(=O)c2nc(S(=O)(=O)CCC(=O)Nc3cc(F)ccc3Cl)n(C)c2n(C)c1=O`: the RP-LC retention time amounted to 778 s.

The molecule `CCCn1cc(SCC(N)=O)c2ccccc21` showed an RP-LC retention time of 730 s.

`CCn1c(C(=O)NCCCc2ccccc2)cc2sccc21` yielded an RP-LC retention time of 1050 s.

`O=C(NCc1ccccn1)c1ccc(=O)n(Cc2ccccc2)n1` returned an RP-LC retention time of 573 s.

`Cc1oc(-c2ccc(NC(=O)CC3CCCCC3)cc2)nc1Cn1cccn1` displayed an RP-LC retention time of 966 s.

The molecule `CCc1ccc(N2CCC(C(=O)NCCc3c[nH]c4ccc(Cl)cc34)C2=O)cc1` (stereo unspecified) displayed an RP-LC retention time of 1020 s.

Take `CC(C)(C)C(=O)C(Oc1ccc(Cl)cc1)n1ccnc1` (stereo unspecified): the RP-LC retention time worked out at 780 s.

With `Cc1ccc(NS(=O)(=O)c2cc(-c3nc(C(C)C)cs3)cs2)c(C)c1`, the RP-LC retention time was 1210 s.

Take `Cc1nc(-c2ccc(S(=O)(=O)Nc3cccnc3)cc2)co1`: the RP-LC retention time is 640 s.

As for `O=C(NC1CC1)[C@@H]1C[C@H](Oc2ccccc2)CN1C(=O)c1cccs1`, the RP-LC retention time was determined as 699 s.

In the case of `Cc1cc2c(=O)n(CC(=O)Nc3cccc(Cl)c3)ccc2s1`, the RP-LC retention time stood at 832 s.

`Cc1ccc(C2(C)NC(=O)NC2=O)cc1` (stereo unspecified) displayed an RP-LC retention time of 604 s.

Turning to `COc1cccc(CC(=O)Nc2ccc(-c3nc(Cn4cccn4)c(C)o3)cc2)c1`, the RP-LC retention time turned out to be 848 s.

On to `CC(Oc1cccc(Cl)c1)c1nc(-c2ccc3c(c2)ncn3CCC(=O)N2CCCC2)no1` (stereo unspecified), for which the RP-LC retention time turned out to be 838 s.

The molecule `COc1cccc(-c2noc(C3CCCN3C(=O)Nc3ccc(C)cc3Cl)n2)c1` (stereo unspecified) had an RP-LC retention time of 1120 s.

`CCn1cc(-c2nc(C(=O)NCc3ccccc3F)cs2)c2cccnc21` displayed an RP-LC retention time of 987 s.

As for `CCc1cc(=O)n(CC(=O)Nc2ccc(F)cc2C)c(N2CCOCC2)n1`, the RP-LC retention time came to 760 s.

Turning to `COc1cc(Cl)ccc1C(=O)Nc1cc(S(=O)(=O)N2CCSCC2)sc1C`, the RP-LC retention time amounted to 1090 s.

Molecule `Cc1ccn2cc(-c3ccc(NC(=O)c4ccccc4Br)cc3)nc2n1` showed an RP-LC retention time of 647 s.

In the case of `COc1ccc(OC)c2sc(NC(=O)c3cccc(N4C(=O)CCC4=O)c3)nc12`, the RP-LC retention time amounted to 716 s.

`O=C(NCCCN1CCCC1)C1CCCN(c2ncc(-c3ccc(F)cc3)cn2)C1` (stereo unspecified) registered an RP-LC retention time of 674 s.

For `CC1CN(C2CCCCC2)c2nc3c(c(=O)n(CC(=O)O)c(=O)n3C)n2C1` (stereo unspecified), the RP-LC retention time amounted to 773 s.

`CCC(=O)N1c2ccc(S(=O)(=O)N3CCCCC3)cc2CC1C(=O)NC1CCCCCC1` (stereo unspecified) showed an RP-LC retention time of 1010 s.

The molecule `CCOc1ccccc1NS(=O)(=O)c1cc2c3c(c1)CCC(=O)N3CCC2` showed an RP-LC retention time of 548 s.

Molecule `c1ccc(-c2n[nH]c(CC3CCNC3)n2)cc1` (stereo unspecified) registered an RP-LC retention time of 570 s.

In turn, `CCOC(=O)N1CCN(C(=O)CSc2ccc(-c3ccco3)nn2)CC1` returned an RP-LC retention time of 661 s.

In the case of `CNC(=O)C1CN(C(=O)c2cccc(Cl)c2)CC12CCCC2` (stereo unspecified), the RP-LC retention time turned out to be 726 s.

In turn, `CCOC(=O)/C(C#N)=C\c1c[nH]c2ccccc12` came in with an RP-LC retention time of 649 s.

With `Cc1cc(N2CCC(NS(=O)(=O)c3ccccc3F)C2=O)ccc1F` (stereo unspecified), the RP-LC retention time worked out at 900 s.

`Cc1ccc(C(=O)Nc2c(-c3ccccc3)nc3ccccn23)cc1[N+](=O)[O-]` gave an RP-LC retention time of 693 s.

In turn, `CCn1cc(S(=O)(=O)N2CCC[C@H]2c2nc(-c3ccc(F)cc3)n[nH]2)cn1` returned an RP-LC retention time of 714 s.

With `CCNS(=O)(=O)c1cccnc1Nc1ccc(Cl)c(C)c1`, the RP-LC retention time came to 1100 s.

Molecule `O=C(CN1C(=O)C2CCCCN2c2ccc(C(=O)N3CCCC3)cc21)NCCC1=CCCCC1` (stereo unspecified) registered an RP-LC retention time of 914 s.

Turning to `COc1ccc(Cn2nc3c(S(=O)(=O)N4CCCCC4)cccn3c2=O)cc1F`, the RP-LC retention time was 888 s.

In the case of `O=C(CCc1c[nH]c2ccccc12)Nc1cccc(-c2nnc3n2CCCC3)c1`, the RP-LC retention time amounted to 682 s.

Turning to `Cc1ccc(-c2noc(-c3ccccc3S(=O)(=O)N3CCN(c4ccccn4)CC3)n2)cc1`, the RP-LC retention time was 862 s.

For the molecule `CC(C)C(NC(=O)Cc1ccccc1Cl)C(=O)Nc1nc2ccccc2[nH]1` (stereo unspecified), the RP-LC retention time was 731 s.

`COc1ccc(NC(=O)Cn2nc3cc(-c4ccccc4)nc(C)n3c2=O)cc1` gave an RP-LC retention time of 661 s.

Regarding `CCc1ccc(C2=C(C)C(N3CCCN(C(=O)C4CC4)CC3)=NS2(=O)=O)cc1`, the RP-LC retention time was 843 s.

For `CN(CC1CCCO1)S(=O)(=O)c1ccc(C(=O)N2CCc3ccccc3C2)cc1` (stereo unspecified), the RP-LC retention time was determined as 808 s.

In turn, `CC(NC(=O)NC1CCCCC1)C(c1cccs1)N1CCN(C)CC1` (stereo unspecified) yielded an RP-LC retention time of 573 s.

For the molecule `Cc1noc(C2CN(C(=O)CCCc3ccccc3)CC23CCOCC3)n1` (stereo unspecified), the RP-LC retention time worked out at 736 s.

The molecule `COc1ccc(/C=C/c2nc(NCCCN(C)C)c3ccccc3n2)cc1` had an RP-LC retention time of 639 s.

For `COc1cc2c(cc1CNC(=O)COc1ccc(F)cc1)OCCCO2`, the RP-LC retention time was determined as 874 s.

Molecule `N#Cc1cnc2ccc(Cl)cc2c1N1CCC(C(=O)Nc2cccc(C(F)(F)F)c2)CC1` yielded an RP-LC retention time of 1120 s.

In turn, `Cc1nn(-c2ccccc2)c2c1N(CCCC(=O)NCc1ccc(N(C)C)cc1)C(=O)CS2` registered an RP-LC retention time of 628 s.

The molecule `Cc1ccc(CNc2ccc3[nH]c(=O)[nH]c3c2)cc1` registered an RP-LC retention time of 579 s.

In turn, `CC(C)c1ccc(N2C(=O)CC(N3CCC(C(N)=O)CC3)C2=O)cc1` (stereo unspecified) showed an RP-LC retention time of 638 s.

As to `Cc1[nH]c2ccccc2c1S(=O)(=O)CCNC(=O)Nc1cccs1`, the RP-LC retention time worked out at 683 s.

Molecule `Cc1cccc(-c2nnc(-c3nc(NCCN4CCOCC4)c4ccccc4n3)o2)c1` gave an RP-LC retention time of 662 s.

`Cn1nnc2cc(C(=O)NCc3ccc4c(c3)OCO4)ccc21` displayed an RP-LC retention time of 686 s.

Turning to `O=C(CCC1CCCC1)N1CCN(C(=O)c2cc(-c3ccccn3)n[nH]2)CC1`, the RP-LC retention time worked out at 715 s.

On to `CCc1onc(C)c1C1CCCN1C(=O)c1cccc(F)c1` (stereo unspecified), for which the RP-LC retention time is 784 s.

With `Cc1cccc(C)c1NC(=O)N1CCC(c2cc(=O)n3nccc3n2C)CC1`, the RP-LC retention time stood at 635 s.

`CN(C)S(=O)(=O)c1cc2c(cc1N1CCN(c3ccccn3)CC1)Oc1ccccc1NC2=O` had an RP-LC retention time of 639 s.

With `O=C1CCN(C(=O)c2ccco2)CCCCCCN1`, the RP-LC retention time was 633 s.

The molecule `Cc1cccc(CNC(=O)c2csc(C(=O)NC3CC3)n2)c1` returned an RP-LC retention time of 824 s.

Consider `COc1ccc(OC)c(NS(=O)(=O)c2cc(-c3nc(C(C)(C)C)cs3)cs2)c1`, for which the RP-LC retention time was determined as 1250 s.

In turn, `CCn1ccc2sc(C)c(C(=O)NCc3cc(F)ccc3F)c2c1=O` gave an RP-LC retention time of 835 s.

On to `CCC(=O)N1CCc2sc(C(=O)N3CCN(c4ccccc4F)CC3)cc2C1`, for which the RP-LC retention time is 827 s.

`Cc1ccccc1NC(=O)N1CCc2nc(-c3ccccc3)ncc2C1`: the RP-LC retention time was found to be 817 s.

On to `O=C(c1cccc(Br)c1)N1CCN(c2cc(-c3ccc(Cl)cc3)[nH]n2)CC1`, for which the RP-LC retention time was 958 s.

In the case of `O=C(Nc1nnc(CCS(=O)(=O)c2ccccc2)o1)C1COc2ccccc2O1` (stereo unspecified), the RP-LC retention time came out at 686 s.

As for `COc1c(C(=O)NC(C)c2ccccc2)sc2cccc(F)c12` (stereo unspecified), the RP-LC retention time stood at 1140 s.

`Cc1ccc(NC(=O)N2CCN(c3cnn4c(C5CC5)nnc4c3)CC2)cc1` gave an RP-LC retention time of 653 s.

The molecule `CCc1ccc(-c2nc3ccc(C)cn3c2CN2CCC(F)(COC)CC2)cc1` registered an RP-LC retention time of 642 s.

Molecule `O=c1c2cnc3nc(-c4ccc(Cl)cc4)nn3c2ccn1CCO` showed an RP-LC retention time of 716 s.
